Measurements reported in ChEMBL document CHEMBL3639218, “Bicyclic heterocycle compounds and their uses in therapy” (2015).

What was measured:
[1] = molecular target: Baculoviral IAP repeat-containing protein 2 (Homo sapiens, UniProt Q13490); assay: In vitro Competitive Displacement Binding Assays : Modified SMAC peptides and compounds were tested for their ability to displace the fluorescent tracer from either XIAP, clAP-1 or clAP-2. BIR3 domains of clAP-1 , clAP-2 and XIAP were incubated with test compounds or SMAC based peptides and their respective peptide probes (Peptide Protein Research) in assay buffer (50mM Hepes pH 7.5, […] Tween-
[2] = molecular target: E3 ubiquitin-protein ligase XIAP (Homo sapiens, UniProt P98170); assay: as above

Row | IC50 [1] [nM] | IC50 [2] [nM] | Compound
1 | 40000 |  | C[C@@H]1CN(CC(=O)N2CCc3ccc(Br)cc32)CCN1
2 |  | 2400 | CC(C)[C@H]1CN[C@H](C)CN1CC(=O)N1CCc2ccc(Br)cc21
3 | 16 |  | COC[C@H]1CN[C@H](C)CN1CC(=O)N1CC(C)(C)c2cnc(CCC(C)C)cc21
